This note sets out measurements from PMC12195740, “Discovery of Novel Imidazothiazole-Based Hydroxamic Acid Derivatives as Potent Indoleamine 2,3-Dioxygenase 1 and Histone Deacetylase 6 Dual Inhibitors” (Molecules, 2025).

The IC50 is the concentration at which inhibition is half-maximal. As a reminder, the inhibition is the percentage by which the read-out fell short of the control.

The target of data set [1] is T1, rhIDO1 (Homo sapiens, UniProt P14902).
T1 construct: purchased
As to the kind of experiment: IDO1 inhibition assay. As to conditions: means ± S.D. of three independent experiments. Type of data set: biochemical. The protocol: Section S1. Biological assays […]
Section S 1.2 IDO1 inhibition assays
IDO1 inhibition assays were carried out according to the manufacturers’ procedures, as described previously. The standard assay mixture (100 μL) contained 50 mM of potassium phosphate buffer (pH = 6.5), 10 mM ascorbate, 10 μM methylene blue, 100 μg/mL catalase, 1 mM L-tryptophan and 10 μg/mL of rhIDO1. The plate was incubated at 37 °C in a dark environment, and reactions were terminated after 60 min by the addition of 50 μL of fluorogenic developer solution and further incubated at 45 °C in dark for 3 h. Then, the plate was allowed to cool to room temperature for at least 1 h. After centrifugation at 1500g for 5 min at 20 °C, the fluorescence […]
M1000 Pro, Tecan US, Morrisville, NC) in an end-point mode. […]

The target in data set [2] is HDAC4 (Homo sapiens, UniProt P56524). As to the kind of experiment: HDAC isoform selectivity assay, HDAC4. Type of data set: biochemical. Particulars: read-out: HDAC4 % inhibition rate at 10 μM.
For data set [3], the system named is CT26 tumors. Briefly: In vivo antitumor efficacy, CT26 tumor-bearing BALB/c mice. As to conditions: 150 mg/kg ip every 3 days for 21 days. The protocol: (§1) After that, fixed cells were washed with PBS. Then, cells were isolated by centrifugation and stained with propidium iodide (KeyGEN BioTECH, China) for 30 min. The samples were measured using flow cytometry and analyzed by Flowjo software.
(§2) Section S 1.6 Western blot assay […]
(§3) earlier were obtained by lysing the cells in ice-cold RIPA buffer with protease and phosphatase inhibitor and stored at -20°C for future use. The protein concentrations were quantified by the Bradford method (Bio-Rad) using a Multimode Varioscan instrument (Thermo Fischer Scientific). […]
(§4) and transferred to a polyvinylidene difluoride (PVDF) membrane (Amersham Biosciences). After the membrane was blocked at room temperature for 2 h in blocking solution, primary antibody was added and incubated at 4°C overnight. Ac-α-tubulin, Ac-histone H3 and GAPDH antibodies were purchased from Imgenex, USA. After three TBST washes, the membrane was incubated with corresponding horseradish peroxidase-labeled secondary antibody (1:2,000) (Santa Cruz) at room temperature for 1 h. Membranes were washed with TBST three times for 15 min and the protein bands were detected with chemiluminescence reagent (Thermo Fischer Scientific). The X-ray films were developed using developer and fixed with fixer solution.
(§5) Section S 1.7 In vivo antitumor efficacy […]
line CT-26 in BALB/c mice as described previously. […]

Data set [4] in a line: General toxicity in CT26 tumor-bearing BALB/c mice (body weight, H&E of organs). Format: in vivo. As to conditions: 150 mg/kg ip every 3 days for 21 days. The protocol:
as §1, §2, §3, §4, §5
line CT-26 in BALB/c mice as described previously. Five-week-old male BALB/c mice were purchased from the Shanghai Ling Chang biotechnology company (China), and tumors were induced through subcutaneous injection of 1 × 10^7 cells in 100 µL of sterile PBS into the dorsal region. The animals were divided into four groups, starting on the second day. When the tumors reached a volume of 50−100 mm3 in all mice, the first group was administered intraperitoneally with an equivalent volume of 5% dextrose as the vehicle control. The second group was treated with […]
treated with complex 10e at doses of 150 mg/kg body weight once every 3 days for 3 weeks, respectively. All compounds were dissolved in vehicle. Tumor volumes and body weights were […]

Data set [5] relates to Ac-α-tubulin (substrate for HDAC6). Briefly: Western blot of Ac-α-tubulin in HCT-116 cells. Format: cell-based. As to conditions: HCT-116, 5−20 μM, 24 h. As for the experimental part: Since HDACs regulate the acetylation status of histone and nonhistone proteins in cells, the acetylation levels of histone H3 (a known substrate for HDACs 1, 2, and 3) and α-tubulin (a known substrate for HDAC6) are frequently used as markers of cellular HDAC activity. […] HCT-116 cells were incubated with compound 10e (5−20 μM) for 24 h, and the levels of acetylation of histone H3 and α-tubulin were detected by the Western blot. […]
with 75% cold ethanol at 4 °C overnight. After that, fixed cells were washed with PBS. Then, cells were isolated by centrifugation and stained with propidium iodide (KeyGEN BioTECH, China) for 30 min. The samples were measured using flow cytometry and analyzed by Flowjo software.
Section S 1.6 Western blot assay
Total cell lysates from cultured HCT-116 cells after treatment with compound 10e as mentioned earlier were obtained by lysing the cells in ice-cold RIPA buffer with protease and phosphatase inhibitor and stored at -20°C for future use. The protein concentrations were quantified by the Bradford method (Bio-Rad) using a Multimode Varioscan instrument (Thermo Fischer Scientific). […]
The in vivo antitumor activity of compound 10e was evaluated in the mouse colon carcinoma cell line CT-26 in BALB/c mice as described previously. […]

Data set [6] has as its target T2, HDAC11 (Homo sapiens, UniProt Q96DB2).
T2 sequence (Q96DB2 1-347): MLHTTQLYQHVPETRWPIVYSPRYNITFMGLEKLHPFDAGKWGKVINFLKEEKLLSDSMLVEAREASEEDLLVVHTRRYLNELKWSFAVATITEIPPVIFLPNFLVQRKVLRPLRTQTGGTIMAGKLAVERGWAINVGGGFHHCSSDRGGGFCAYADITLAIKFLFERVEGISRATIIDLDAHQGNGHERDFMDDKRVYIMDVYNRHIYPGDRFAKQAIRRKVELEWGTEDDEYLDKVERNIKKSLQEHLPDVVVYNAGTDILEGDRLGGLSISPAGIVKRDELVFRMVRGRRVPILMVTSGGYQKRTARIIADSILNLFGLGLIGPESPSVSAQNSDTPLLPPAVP
Briefly: HDAC isoform selectivity assay, HDAC11. Type of data set: biochemical. Particulars: read-out: HDAC11 % inhibition rate at 10 μM.

Data set [7] is described as follows: Cell viability assay, HK2 normal renal cells. Particulars: human.
Source text: On the basis of the IDO1 and HDAC activities, we explored the proliferation inhibitory activities of the selected compounds against four solid tumor cells lines.

T1 sequence (P14902 whole entry): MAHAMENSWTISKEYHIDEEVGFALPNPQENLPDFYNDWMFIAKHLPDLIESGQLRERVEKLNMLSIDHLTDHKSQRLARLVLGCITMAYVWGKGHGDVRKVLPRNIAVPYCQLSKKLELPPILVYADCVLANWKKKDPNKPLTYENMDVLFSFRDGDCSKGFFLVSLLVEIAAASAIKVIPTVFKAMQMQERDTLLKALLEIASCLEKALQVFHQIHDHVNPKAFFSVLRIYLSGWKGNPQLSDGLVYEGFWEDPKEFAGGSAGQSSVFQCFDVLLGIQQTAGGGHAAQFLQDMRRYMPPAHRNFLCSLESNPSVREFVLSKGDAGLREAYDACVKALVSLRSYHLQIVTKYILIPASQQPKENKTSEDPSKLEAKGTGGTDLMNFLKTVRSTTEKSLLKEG
Chain of HDAC4 (P56524 whole entry, species assumed, canonical isoform): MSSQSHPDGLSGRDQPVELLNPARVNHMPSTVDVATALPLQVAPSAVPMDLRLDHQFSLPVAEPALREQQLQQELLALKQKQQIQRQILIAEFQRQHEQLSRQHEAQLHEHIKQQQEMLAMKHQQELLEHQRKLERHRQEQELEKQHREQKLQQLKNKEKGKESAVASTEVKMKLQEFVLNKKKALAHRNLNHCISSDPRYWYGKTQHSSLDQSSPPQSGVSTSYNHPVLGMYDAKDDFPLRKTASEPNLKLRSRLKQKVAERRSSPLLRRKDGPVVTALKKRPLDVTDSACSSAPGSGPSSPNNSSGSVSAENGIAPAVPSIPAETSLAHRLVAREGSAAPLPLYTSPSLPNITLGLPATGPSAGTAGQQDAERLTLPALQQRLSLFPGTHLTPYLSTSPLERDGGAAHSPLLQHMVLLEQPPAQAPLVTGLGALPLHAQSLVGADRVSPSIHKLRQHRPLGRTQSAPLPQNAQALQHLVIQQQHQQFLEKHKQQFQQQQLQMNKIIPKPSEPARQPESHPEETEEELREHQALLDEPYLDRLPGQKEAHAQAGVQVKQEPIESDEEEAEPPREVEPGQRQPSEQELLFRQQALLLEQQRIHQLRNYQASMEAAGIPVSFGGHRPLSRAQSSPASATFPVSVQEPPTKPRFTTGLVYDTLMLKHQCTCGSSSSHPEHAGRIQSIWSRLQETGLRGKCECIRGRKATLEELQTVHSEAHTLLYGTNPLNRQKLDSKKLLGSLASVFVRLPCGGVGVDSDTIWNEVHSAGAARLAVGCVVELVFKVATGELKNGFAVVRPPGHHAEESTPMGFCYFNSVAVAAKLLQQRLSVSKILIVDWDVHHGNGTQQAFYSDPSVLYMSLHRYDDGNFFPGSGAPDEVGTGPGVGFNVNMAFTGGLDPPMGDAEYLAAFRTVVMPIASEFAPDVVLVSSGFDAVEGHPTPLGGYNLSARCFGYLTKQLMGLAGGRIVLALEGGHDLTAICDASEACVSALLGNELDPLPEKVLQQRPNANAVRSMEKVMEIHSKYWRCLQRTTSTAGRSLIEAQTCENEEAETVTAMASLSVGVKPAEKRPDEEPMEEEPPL

Take `O=C(CCCCCCNc1ccc(NC(=O)c2cnc3scc(-c4ccc(Br)cc4)n23)cc1)NO` [Compound 10e, 3-(4-Bromophenyl)-N-{4-[(7-(hydroxyamino)-7-oxoheptyl)amino]phenyl}imidazo[2,1-b]thiazole-5-carboxamide]: the figures for the IC50 in data set [1] and in data set [7] were 86 ± 20 nM and greater than 80000 nM, respectively. In addition, the inhibition at 10 µM in data set [2] is 9.58%; in data set [6], 24.4%. In addition, the “relative tumor volume growth rate (T/C)” value in data set [3] is reported as 38.32%. Moreover, the “tumor growth inhibition (TGI)” value in data set [3] was determined as 60.2%. Moreover, the “histology of liver, spleen, and kidney (H&E staining)” value in data set [4] was “no obvious histological differences”. Besides, the “influence on body weight of the mice” value in data set [4] (versus vehicle group) is reported as “no obvious influence”. In addition, the Ac-α-tubulin levels result in data set [5] is on record as “markedly increased”.
